Assay results taken from US20250223297A1, “NOVEL RAPAMYCIN DERIVATIVES” (Novartis AG, priority 2017, published 2025).

Key:
[1] = tested on: mTORC1 signaling (pS6 Ser240/244) in MEF TSC1−/− cells; test: MEF TSC1-/- cell based assay for rapalog potency (pS6); set-up: species or system mouse; settings: 2 h treatment, average from multiple assays
Excerpt: Potency of mTOR inhibitors may also be determined using a MEF TSC1−/− cell-based assay. MEF TSC1−/− cells are Mouse Embryonic Fibroblasts deficient in the Tuberous sclerosis protein, TSC1, which negatively regulates mTORC1 signaling. Thus, the deficiency of TSC1 induces constitutive mTORC1 activation, resulting in phosphorylation (activation) of the downstream proteins in the mTORC1 signaling pathways. This cell-based assay is used to measure inhibition (de-phosphorylation) of the mTORC1 signaling components S6 and 4EBP1, by rapalogs or other mTOR inhibitors.
The assay is typically carried out as follows: MEF TSC1−/− cells are plated on Poly-D-lysine coated 384 well Griener clear bottom plates and incubated overnight at 37° C., 5% CO2. […] Cells are fixed with 4% paraformaldehyde for 30 min and washed 5 times with TBS-EDTA followed by immuno-staining with florescent tag labeled antibodies for pS6 and p4EBP1. Nuclei are visualized with Hoechst staining. Cells are imaged using respective florescence channels and the potency of mTOR inhibitors is defined by pS6 IC50 (nM).
Cell-based assay for rapalog potency determination. Rapalog potency was determined using MEF TSC1−/− cell based assay. MEF TSC1−/− cells are Mouse Embryonic Fibroblasts deficient in Tuberous sclerosis protein-TSC1, which negatively regulates mTORC1 signaling and thus display constitutive mTORC1 activation, resulting in phosphorylation (activation) of downstream molecules. This cell-based assay is used to measure inhibition (de-phosphorylation) of S6 and 4EBP1 by rapalogs or other mTOR inhibitors.
MEF TSC1−/− cells were plated on Poly-D-lysine coated 384 well Griener clear bottom plates and incubated overnight at 37° C., 5% CO2. […] Nuclei were visualized with Hoechst (ThermoFisher Scientific #H3570) staining. Cells were imaged (InCell 600) using respective fluorescence channels and the potency of mTOR inhibitors was defined by pS6 IC50 (nM).
In vitro potency of mTOR inhibitors was defined by pS6 IC50 (nM) in MEF TSC1−/− cells.
IC50 values are calculated as the average from multiple assays.

[2] = tested on: S6K1 (Thr389) phosphorylation (mTORC1 activity) in FKBP12 knock-out 293T cells; test: S6K1 (Thr389) phosphorylation ELISA in FKBP12 knock-out 293T cells; format: cell-based; settings: 2 h, relative to DMSO
FKBP52 = FKBP52 (Homo sapiens (Human), UniProt Q02790); test: SPR assay, binding affinity to FKBP52; settings: single-cycle kinetics
Sequence of FKBP52 (Q02790 whole entry, the tested form may be a part): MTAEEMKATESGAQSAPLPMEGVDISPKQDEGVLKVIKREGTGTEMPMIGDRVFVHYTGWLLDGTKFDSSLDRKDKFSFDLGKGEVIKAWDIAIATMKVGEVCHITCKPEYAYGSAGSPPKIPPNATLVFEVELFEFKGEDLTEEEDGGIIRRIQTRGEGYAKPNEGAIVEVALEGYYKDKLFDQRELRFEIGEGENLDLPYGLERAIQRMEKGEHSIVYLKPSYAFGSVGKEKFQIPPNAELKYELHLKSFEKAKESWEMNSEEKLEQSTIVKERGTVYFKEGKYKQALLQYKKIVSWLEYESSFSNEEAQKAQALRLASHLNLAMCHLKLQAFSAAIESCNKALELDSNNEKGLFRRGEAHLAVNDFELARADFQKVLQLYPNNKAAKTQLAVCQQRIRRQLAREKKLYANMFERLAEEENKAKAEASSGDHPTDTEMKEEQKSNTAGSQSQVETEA
Experimental: (§1) SPR Assay to Determine Binding Affinity to FK506-Binding Proteins (FKBP). N-terminal avi-his6 tagged FKBP fusions to FKBP12, FKBP51 and FKBP52 were expressed in E. coli and purified using standard chromatography. Each protein was subsequently immobilized on a streptavidin chip in a Biacore 8K SPR instrument (GE Healthcare). Using single-cycle kinetics, compound titrations were flowed at 45 uL/min over each surface using 2-minute association and 30-minute dissociation phases in a buffer containing 50 mM Tris pH 7.5/150 mM NaCl/0.01% Tween 20/1 mM DTT/2% DMSO. The data was fit using low molecular weight (LMW) single-cycle kinetics. The equilibrium dissociation constants (KD) are reported. […]

[3] = tested on: S6K1 (Thr389) phosphorylation (mTORC1 activity) in WT 293T cells; test: S6K1 (Thr389) phosphorylation ELISA in wild-type 293T cells; format: cell-based; settings: 2 h, relative to DMSO
Experimental: WT, FKBP12 knock-down and FKBP12 knock-out 293T cells were plated at a density of 30,000 cells per well in poly-D-Lysine coated 96-well plates (Corning, #354461) in Dulbecco's modified Eagle's medium (ThermoFisher, #11995-065) supplemented with 10% fetal bovine serum (ThermoFisher, #16140-071). Cells were incubated at 37° C., 5% CO2 for 48 hours until they reached ˜80% confluence. […] Media supplemented with blank Dimethyl sulfoxide (DMSO) was used as a control for both compounds. Phosphorylated amounts of S6K1 (Thr389) were detected by a sandwich ELISA kit (Cell signaling, #7063C) following the manufacture's protocol.
S6K1 is a downstream target of mTORC1 and phosphorylation of its rapalog-sensitive Thr389 site is used as a functional readout of mTORC1 activity. Lee, C. H., Inoki, K. and Guan, K. L. (2007). mTOR pathway as a target in […]. Annu. Rev. Pharmacol. Toxicol. 47. 443-467. […] In FKBP12 knock-out cells. […] Such specificity of Example 2 to FKBP12 may facilitate targeting cells and tissues with relatively high levels of FKBP12 expression, while avoiding (or minimizing) side effects in the tissues where FKBP12 is weakly expressed.

FKBP12 = FKBP12 (Homo sapiens (Human), UniProt P62942); test: SPR assay, binding affinity to FKBP12; settings: single-cycle kinetics
Sequence of FKBP12 (P62942 whole entry): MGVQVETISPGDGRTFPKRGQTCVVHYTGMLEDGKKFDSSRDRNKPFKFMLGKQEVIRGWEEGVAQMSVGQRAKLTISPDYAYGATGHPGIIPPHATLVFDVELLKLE
Experimental: as §1

[4] = tested on: S6K1 (Thr389) phosphorylation (mTORC1 activity) in FKBP12 knock-down 293T cells; test: S6K1 (Thr389) phosphorylation ELISA in FKBP12 knock-down 293T cells; format: cell-based; settings: 2 h, relative to DMSO

Structure (SMILES) | IC50 [1] | IC50 ([1]; Mus musculus, 2 h) | Kd (FKBP52) | Kd (FKBP12) | also measured
CO[C@@H]1C[C@H](C[C@@H](C)[C@@H]2CC[C@H](C)/C=C(\C)[C@@H](O)[C@@H](OC)C(=O)[C@H](C)C[C@H](C)/C=C/C=C/C=C(\C)C(N3CCS3(=O)=O)C[C@@H]3CC[C@@H](C)[C@@](O)(O3)C(=O)C(=O)N3CCCC[C@H]3C(=O)O2)CC[C@H]1O (single isomer, unassigned) [Example 7, C16-(1,1-dioxido-1,2-thiazetidin-2-yl)-C32-deoxo-rapamycin] | 0.3 nM |  |  |  | 
CO[C@@H]1C[C@H](C[C@@H](C)[C@@H]2CC[C@H](C)/C=C(\C)[C@@H](O)[C@@H](OC)C(=O)[C@H](C)C[C@H](C)/C=C/C=C/C=C(\C)C(N3CCS3(=O)=O)C[C@@H]3CC[C@@H](C)[C@@](O)(O3)C(=O)C(=O)N3CCCC[C@H]3C(=O)O2)CC[C@@H]1n1cnnn1 (single isomer, unassigned) [Example 12] |  | 0.374 nM |  |  | 
CO[C@H]1C[C@@H]2CC[C@@H](C)[C@@](O)(O2)C(=O)C(=O)N2CCCC[C@H]2C(=O)O[C@H]([C@H](C)C[C@@H]2CC[C@@H](OCCO)[C@H](OC)C2)CC(=O)[C@H](C)/C=C(\C)[C@@H](O)[C@@H](OC)C(=O)[C@H](C)C[C@H](C)/C=C/C=C/C=C/1C [RAD001, everolimus, reference compound] |  |  | 1760 nM | 500 nM | inhibition of S6K1 (Thr389) phosphorylation [2]: > 60%; inhibition of S6K1 (Thr389) [3]: ~80%; maximum inhibition of S6K1 (Thr389) [4]: ~70%
CO[C@@H]1C[C@H](C[C@@H](C)[C@@H]2CC[C@H](C)/C=C(\C)[C@@H](O)[C@@H](OC)C(=O)[C@H](C)C[C@H](C)/C=C/C=C/C=C(\C)C(N3CCS3(=O)=O)C[C@@H]3CC[C@@H](C)[C@@](O)(O3)C(=O)C(=O)N3CCCC[C@H]3C(=O)O2)CC[C@H]1OCCO (single isomer, unassigned) [Example 9, C16-(1,1-dioxido-1,2-thiazetidin-2-yl)-C32-deoxo-C40-(2-hydroxyethoxy)-rapamycin] | 1.45 nM |  |  |  | 
CO[C@@H]1C[C@H](C[C@@H](C)[C@@H]2CC[C@H](C)/C=C(\C)[C@@H](O)[C@@H](OC)C(=O)[C@H](C)C[C@H](C)/C=C/C=C/C=C(\C)C(N3CCS3(=O)=O)C[C@@H]3CC[C@@H](C)[C@@](O)(O3)C(=O)C(=O)N3CCCC[C@H]3C(=O)O2)CC[C@H]1OP(C)(C)=O (single isomer, unassigned) [Example 10, C16-(1,1-dioxido-1,2-thiazetidin-2-yl)-C32-deoxo-C40-dimethylphosphinyl-rapamycin] |  |  | 176 nM | 1.6 nM | 
CO[C@@H]1C[C@H](C[C@@H](C)[C@@H]2CC[C@H](C)/C=C(\C)[C@@H](O)[C@@H](OC)C(=O)[C@H](C)C[C@H](C)/C=C/C=C/C=C(\C)C(N3CCS3(=O)=O)C[C@@H]3CC[C@@H](C)[C@@](O)(O3)C(=O)C(=O)N3CCCC[C@H]3C(=O)O2)CC[C@H]1OCCO (single isomer, unassigned) [Example 8, C16-(1,1-dioxido-1,2-thiazetidin-2-yl)-C32-deoxo-C40-(2-hydroxyethoxy)-rapamycin] | 0.328 nM |  |  |  | 
CO[C@@H]1C[C@H](C[C@@H](C)[C@@H]2CC[C@H](C)/C=C(\C)[C@@H](O)[C@@H](OC)C(=O)[C@H](C)C[C@H](C)/C=C/C=C/C=C(\C)C(N3CCS3(=O)=O)C[C@@H]3CC[C@@H](C)[C@@](O)(O3)C(=O)C(=O)N3CCCC[C@H]3C(=O)O2)CC[C@H]1O (single isomer, unassigned) [Example 6, C16-(1,1-dioxido-1,2-thiazetidin-2-yl)-C32-deoxo-rapamycin] |  | 0.17 nM |  |  | 
CO[C@@H]1C[C@H](C[C@@H](C)[C@@H]2CC[C@H](C)/C=C(\C)[C@@H](O)[C@@H](OC)C(=O)[C@H](C)C[C@H](C)/C=C/C=C/C=C(\C)C(N3CCCS3(=O)=O)C[C@@H]3CC[C@@H](C)[C@@](O)(O3)C(=O)C(=O)N3CCCC[C@H]3C(=O)O2)CC[C@H]1OP(C)(C)=O (single isomer, unassigned) [Example 15, C16-(1,1-dioxidoisothiazolidin-2-yl)-C32-deoxo-C40-dimethylphosphinyl-rapamycin] |  | 3.2 nM |  |  | 

Now from value to compound, other results behind:

IC50 [1] | IC50 ([1]; Mus musculus, 2 h) | Kd (FKBP52) | Kd (FKBP12) | Structure (SMILES) | also measured
 | 7.77 nM | 542 nM | 16 nM | CO[C@@H]1C[C@H](C[C@@H](C)[C@@H]2CC[C@H](C)/C=C(\C)[C@@H](O)[C@@H](OC)C(=O)[C@H](C)C[C@H](C)/C=C/C=C/C=C(\C)C(N3CCCS3(=O)=O)C[C@@H]3CC[C@@H](C)[C@@](O)(O3)C(=O)C(=O)N3CCCC[C@H]3C(=O)O2)CC[C@H]1OP(C)(C)=O (single isomer, unassigned) [Example 14, C16-(1,1-dioxidoisothiazolidin-2-yl)-C32-deoxo-C40-dimethylphosphinyl-rapamycin] | 
0.656 nM |  |  |  | CO[C@@H]1C[C@H](C[C@@H](C)[C@@H]2CC[C@H](C)/C=C(\C)[C@@H](O)[C@@H](OC)C(=O)[C@H](C)C[C@H](C)/C=C/C=C/C=C(\C)C(N3CCS3(=O)=O)C[C@@H]3CC[C@@H](C)[C@@](O)(O3)C(=O)C(=O)N3CCCC[C@H]3C(=O)O2)CC[C@@H]1n1cnnn1 (single isomer, unassigned) [Example 13] | 
 | 153 nM |  |  | CO[C@@H]1C[C@H](C[C@@H](C)[C@@H]2CC[C@H](C)/C=C(\C)[C@@H](O)[C@@H](OC)C(=O)[C@H](C)C[C@H](C)/C=C/C=C/C=C(\C)C(N3CCN(CCO)C3=O)C[C@@H]3CC[C@@H](C)[C@@](O)(O3)C(=O)C(=O)N3CCCC[C@H]3C(=O)O2)CC[C@H]1O (single isomer, unassigned) [Example 5] | 
 |  | 4070 nM | 35 nM | CO[C@@H]1C[C@H](C[C@@H](C)[C@@H]2CC[C@H](C)/C=C(\C)[C@@H](O)[C@@H](OC)C(=O)[C@H](C)C[C@H](C)/C=C/C=C/C=C(\C)[C@H](N3CCCS3(=O)=O)C[C@@H]3CC[C@@H](C)[C@@](O)(O3)C(=O)C(=O)N3CCCC[C@H]3C(=O)O2)CC[C@H]1OCCO [Example 16] | 
